Experimental data as given in patent US10828301B2, “2,4-pyrimidinediamine compounds and their uses” (Rigel Pharmaceuticals, Inc, priority 2002, dated 2020).
Where a name gives a salt, the structure may show the parent alone. Read-outs that look alike come from different tables or passages of the source.

Key:
Assay type in all cases: cell-based
[1] = system: bone marrow derived mast cells (BMMC); assay: BMMC high cell density IgE activation: degranulation (hexosiminidase, histamine), leukotriene (LTC4) and cytokine (TNFalpha, IL-6) assays; conditions: Mus musculus, anti-IgE activation, hexosaminidase release, read-out: BMMC anti-IgE hexos IC50
Method: After sensitizing, cells are counted, pelleted (1000 rpm, 5-10 minutes), and resuspended at 1-3×10^6 cells/ml in MT buffer. Add 100 ul of cell suspension to each well and 100 ul of compound dilutions. The final vehicle concentration is 0.5% DMSO. Incubate at 37° C. (5% CO2) for 1 hour. After 1 hour of compound treatment, stimulate cells with 6× stimulus (60 ng/ml DNP-BSA). Mix wells with the cells and allow plates to incubate at 37° C. (5% CO2) for one hour. After 1 hour incubation, pellet cells (10 minutes, 1000 RPM) and collect 200 ul per well of the supernatant, being careful not to disturb pellet, and transfer to a clean tube or 96-well plate. Place the supernatant plate on ice. During the 4-5 hour step (see next) perform the hexosiminidase assay. Resuspend cell pellet in 240 ul WEI-conditioned media containing 0.5% DMSO and corresponding concentration of compound. Incubate BMMC cells for 4-5 hours at 37° C. (5% CO2). After incubation, pellet cells (1000 RPM, 10 minutes) and collect 225 ul per well and place in −80° C. until ready to perform ELISAS. ELISAS are performed on appropriately diluted samples (determined empirically for each donor cell population so that the sample measurement falls within the standard curve) following the supplier's instructions.
Add 50 uL of BMMC cell supernatant (see above) to the hexoseaminidase substrate, place at 37° C. for 30 minutes and read the plate at 5, 10, 15, and 30 minutes on a spectrophotometer.

[2] = system: ionophore-induced degranulation of mast and/or basophil cells; assay: Ionophore (ionomycin or A23187)-induced degranulation counter screen; conditions: high density BMMC, ionomycin activation, hexosaminidase release, read-out: BMMC Ionomycin Hexos. IC50
Text: In addition to the FcεRI or FcγRI degranulation pathways discussed above, degranulation of mast and/or basophil cells can be induced by other agents. For example, ionomycin, a calcium ionophore that bypasses the early FcεRI or FcγRI signal transduction machinery of the cell, directly induces a calcium flux that triggers degranulation. Referring again to FIG. 2, activated PLCγ initiates pathways that lead to, among other things, calcium ion mobilization and subsequent degranulation. As illustrated, this Ca^2+ mobilization is triggered late in the FcεRI signal transduction pathway. […] Other ionophores that induce degranulation in this manner include A23187. The ability of granulation-inducing ionophores such as ionomycin to bypass the early stages of the FcεRI and/or FcγRI signaling cascades may be used as a counter screen to identify active compounds of the invention that specifically exert their degranulation-inhibitory activity by blocking or inhibiting the early FcεRI or FcγRI signaling cascades, as discussed above.
Assays suitable for determining the IC50 of ionophore-induced degranulation include any of the previously-described degranulation assays, with the modification that the cells are stimulated or activated with a degranulation-inducing calcium ionophore such as ionomycin or A23187 (A.G. Scientific, San Diego, Calif.) instead of anti-IgE antibodies or an IgE-specific allergen. Specific assays for assessing the ability of a particular 2,4-pyrimidinediamine compound of the invention to inhibit ionophore-induced degranulation are provided in the Examples section.

[3] = system: basophils in whole human peripheral blood; assay: Basophil IgE activation: histamine release assay; conditions: anti-IgE activation
Method: The basophil activation assay was carried out using whole human peripheral blood from donors allergic to dust mites with the majority of the red blood cells removed by dextran sedimentation. Human peripheral blood was mixed 1:1 with 3% dextran T500 and RBCs were allowed to settle for 20-25 min. The upper fraction was diluted with 3 volumes of D-PBS and cells were spun down for 10 min at 1500 rpm, RT. Supernatant was aspirated and cells were washed in an equal volume MT-buffer. Finally, cells were resuspended in MT-buffer containing 0.5% DMSO in the original blood volume. 80 uL cells were mixed with 20 uL compound in the presence of 0.5% DMSO, in triplicate, in a V-bottom 96-well tissue culture plate. A dose range of 8 compound concentrations was tested resulting in a 10-point dose response curve including maximum (stimulated) and minimum (unstimulated) response. […] The cells were stimulated for 30 minutes at 37° C., 5% CO2. The plate was spun for 10 min at 1500 rpm at room temperature and 80 uL the supernatant was harvested for histamine content analysis using the histamine ELISA kit supplied by Immunotech. The ELISA was performed according to supplier's instructions.

[4] = system: basophils in whole human peripheral blood; assay: Basophil ionomycin activation: histamine release assay
Method: Assays for ionomycin-induced basophil cell degranulation were carried out as described for the Basophil IgE or Dustmite Activation Assay (Section 6.4.6, supra), with the exception that following incubation with compound, cells were stimulated with 20 μl of 2 μM ionomycin.

[5] = system: cultured human mast cells (CHMC); assay: CHMC low cell density IgE activation: tryptase and LTC4 assays; conditions: Homo sapiens, Mast cell, Low Density CHMC, anti-IgE activation
In short: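 Cultured human mast cells at low density (1000-1500 per well) rested 1 h at 37° C, then stimulated with anti-IgE for 30 min at 37° C. Supernatant tryptase measured with fluorogenic substrate (30 min, room temperature); LTC4 quantified by ELISA on diluted supernatant.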

[6] = system: cultured human mast cells (CHMC); assay: CHMC low cell density ionomycin activation: tryptase assay; conditions: Homo sapiens, Mast cell, Low Density CHMC, ionomycin activation
[7] = hexosaminidase readout, read-out: CHMC anti-IgE Hexos.
[8] = hexosaminidase readout, read-out: CHMC Ionomycin Hexos.

Molecule `Fc1cnc(Nc2ccc(C(F)(F)F)cc2)nc1Nc1ccc(C(F)(F)F)cc1` [Compound R926016, N2,N4-Bis(4-trifluoromethylphenyl)-5-fluoro-2,4-pyrimidinediamine] has an IC50 [1] of over 10 µM, an IC50 ([2]; Mus musculus) of over 10 µM and an IC50 ([3]; Homo sapiens) of over 10 µM. For the same molecule, the IC50 ([4]; Homo sapiens) was over 10 µM.

`Fc1cc(Nc2ncc(F)c(Nc3ccc(C(F)(F)F)c(F)c3)n2)ccc1C(F)(F)F` [Compound R926018, N2,N4-Bis(3-fluoro-4-trifluoromethylphenyl)-5-fluoro-2,4-pyrimidinediamine] gave an IC50 [1] of 8.5 µM, an IC50 ([2]; Mus musculus) of over 10 µM and an IC50 ([3]; Homo sapiens) of over 10 µM. For the same molecule, the IC50 ([4]; Homo sapiens) was 10 µM.

For `Fc1cnc(Nc2ccc3c(c2)OC(F)(F)C(F)(F)O3)nc1Nc1ccc2c(c1)OC(F)(F)C(F)(F)O2` [Compound R926037, N2,N4-Bis(3,4-tetrafluoroethylendioxyphenyl)-5-fluoro-2,4-pyrimidinediamine], the IC50 [2] was over 10 µM, the IC50 [3] was over 10 µM and the IC50 [4] was over 10 µM.

`CCOc1cccc(Nc2ncc(F)c(Nc3cccc(OCC)c3)n2)c1` [Compound R926064, N2,N4-Bis(3-ethoxyphenyl)-5-fluoro-2,4-pyrimidinediamine] was tested, and the IC50 [1] was 5.9 µM, the IC50 ([2]; Mus musculus) was 7.3 µM and the IC50 [5, 7] was 6.2 µM.

In the case of `COc1cccc(Nc2ncc(F)c(Nc3cccc(OC)c3)n2)c1` [Compound R926065, N2,N4-Bis(3-methoxyphenyl)-5-fluoro-2,4-pyrimidinediamine], the IC50 [1] is reported as over 10 µM, the IC50 ([2]; Mus musculus) is reported as over 10 µM and the IC50 [5, 7] is reported as 3.5 µM.

`CCOc1ccc(Nc2ncc(C)c(Nc3ccc(OCC)cc3)n2)cc1` [Compound R926068, N2,N4-Bis(4-ethoxyphenyl)-5-methyl-2,4-pyrimidinediamine] was tested, and the IC50 [1] was 7.4 µM, the IC50 ([2]; Mus musculus) was 8.2 µM and the IC50 [5, 7] was over 10 µM.

`CCOc1ccc(Nc2ccnc(Nc3ccc(OCC)cc3)n2)cc1` [Compound R926069, N2,N4-Bis(4-ethoxyphenyl)-2,4-pyrimidinediamine] was tested, and the IC50 [1] was 4.5 µM, the IC50 ([2]; Mus musculus) was 4.4 µM and the IC50 [5, 7] was 9.1 µM.

`CCOc1ccc(Nc2cc(Cl)nc(Nc3ccc(OCC)cc3)n2)cc1` [Compound R926072, N2,N4-Bis(4-ethoxyphenyl)-6-chloro-2,4-pyrimidinediamine] showed an IC50 [1] of over 10 µM, an IC50 ([2]; Mus musculus) of over 10 µM and an IC50 [5, 7] of over 10 µM.

Molecule `Fc1cnc(Nc2ccc(N3CCOCC3)cc2)nc1Nc1ccc(N2CCOCC2)cc1` [Compound R926114, N2,N4-Bis[4-(N-morpholino)phenyl]-5-fluoro-2,4-pyrimidinediamine] has an IC50 [2] of over 10 µM.

`CCOc1ccc(Nc2ncc(F)c(Nc3ccc(OC)c(OC)c3)n2)cc1` [Compound R926145, N4-(3,4-Dimethoxyphenyl)-N2-(4-ethoxyphenyl)-5-fluoro-2,4-pyrimidinediamine] gave an IC50 [6, 8] of over 10 µM, an IC50 [1] of 2.4 µM and an IC50 ([2]; Mus musculus) of 8.8 µM. It also gave an IC50 [5, 7] of 4.76 µM.

Work on `COc1ccc(Nc2nc(Nc3cccc(O)c3)ncc2F)cc1OC` [Compound R926147, N4-(3,4-Dimethoxyphenyl)-5-fluoro-N2-(3-hydroxyphenyl)-2,4-pyrimidinediamine] yielded an IC50 [6, 8] of over 10 µM, an IC50 [1] of 2 µM and an IC50 ([2]; Mus musculus) of 7.1 µM. For the same molecule, the IC50 [5, 7] was 1.9 µM.

Molecule `CCOc1ccc(Nc2nc(Nc3ccc4c(c3)OCCO4)ncc2F)cc1` [Compound R926213, N4-(4-Ethoxyphenyl)-N2-(3,4-ethylenedioxyphenyl)-5-fluoro-2,4-pyrimidinediamine] has an IC50 ([6]; tryptase readout, read-out: CHMC Ionomycin Tryptase) of 5.5 µM, an IC50 ([5]; tryptase readout, read-out: CHMC anti-IgE Tryptase) of 1.64 µM and an IC50 ([3]; Homo sapiens) of 1.75 µM. For the same molecule, the IC50 ([4]; Homo sapiens) was over 10 µM.

For `Fc1ccc(Nc2ncc(F)c(Nc3ccc4c(c3)OCCO4)n2)cc1Cl` [Compound R926218, N2-(3-Chloro-4-fluorophenyl)-N4-(3,4-ethylenedioxyphenyl)-5-fluoro-2,4-pyrimidinediamine], the IC50 [1] was over 10 µM, the IC50 ([2]; Mus musculus) was over 10 µM and the IC50 [5, 7] was over 10 µM.

With `CC(C)(C)c1ccc(Nc2ncc(F)c(Nc3ccc4c(c3)OCCO4)n2)cc1` [Compound R926219, N2-(4-tert-Butylphenyl)-N4-(3,4-ethylenedioxyphenyl)-5-fluoro-2,4-pyrimidinediamine] the IC50 [6, 8] was 6.7 µM, the IC50 [1] was 2.5 µM and the IC50 ([2]; Mus musculus) was 3.2 µM. The IC50 [5, 7] was 1.1 µM.

For `Fc1ccc(Nc2ncc(F)c(Nc3ccc4c(c3)OCCO4)n2)cc1` [Compound R926220, N4-(3,4-Ethylenedioxyphenyl)-N2-(4-fluorophenyl)-5-fluoro-2,4-pyrimidinediamine], the IC50 [1] was over 10 µM, the IC50 ([2]; Mus musculus) was over 10 µM and the IC50 [5, 7] was over 10 µM.

Work on `Fc1cccc(Nc2ncc(F)c(Nc3ccc4c(c3)OCCO4)n2)c1` [Compound R926221, N4-(3,4-Ethylenedioxyphenyl)-N2-(3-fluorophenyl)-5-fluoro-2,4-pyrimidinediamine] yielded an IC50 [1] of 9.9 µM, an IC50 ([2]; Mus musculus) of over 10 µM and an IC50 [5, 7] of 8.5 µM.

In the case of `CC(C)(C)c1ccc(Nc2ncc(F)c(Nc3ccc(C(C)(C)C)cc3)n2)cc1` [Compound R926222, N2,N4-Bis(4-tert-butylphenyl)-5-fluoro-2,4-pyrimidinediamine], the IC50 [1] is reported as over 10 µM, the IC50 ([2]; Mus musculus) is reported as over 10 µM and the IC50 [5, 7] is reported as over 10 µM.

In the case of `Fc1ccc(Nc2ncc(F)c(Nc3ccc(F)c(Cl)c3)n2)cc1Cl` [Compound R926223, N2,N4-Bis(3-chloro-4-fluorophenyl)-5-fluoro-2,4-pyrimidinediamine], the IC50 [1] is reported as over 10 µM, the IC50 ([2]; Mus musculus) is reported as over 10 µM and the IC50 [5, 7] is reported as over 10 µM.

`Fc1ccc(Nc2ncc(F)c(Nc3ccc(F)cc3)n2)cc1` [Compound R926224, N2,N4-Bis(4-fluorophenyl)-5-fluoro-2,4-pyrimidinediamine] showed an IC50 [1] of over 10 µM, an IC50 ([2]; Mus musculus) of over 10 µM and an IC50 [5, 7] of over 10 µM.

Molecule `Cc1ccc(Nc2ncc(F)c(Nc3ccc(C)cc3)n2)cc1` [Compound R926225, N2,N4-Bis(4-methylphenyl)-5-fluoro-2,4-pyrimidinediamine] has an IC50 [1] of over 10 µM, an IC50 ([2]; Mus musculus) of over 10 µM and an IC50 [5, 7] of over 10 µM.

Work on `O=C(c1cc2cc(Nc3ncc(F)c(Nc4ccc5c(c4)OCCO5)n3)ccc2o1)N1CCNCC1` [Compound R926501, N4-(3,4-Ethylenedioxyphenyl)-5-fluoro-N2-[2-(N-piperazino)carbonylbenzofuran-5-yl]-2,4-pyrimidinediamine Hydrogen Chloride Salt] yielded an IC50 [4] of over 10 µM.

`O=C(c1cc2cc(Nc3ncc(F)c(Nc4cccc(O)c4)n3)ccc2o1)N1CCNCC1` [Compound R926502, 5-Fluoro-N4-(3-hydroxyphenyl)-N2-[2-(N-piperazino)carbonylbenzofuran-5-yl]-2,4-pyrimidinediamine Hydrogen Chloride Salt] gave an IC50 [4] of over 10 µM.
